pIC50: −log10 of the molar value. Where two headings read alike, the source gives them in different places.
Columns and labels:
[1] = tested on: Her2 positive breast cancer cell lines; settings: 4 types of Her2 positive breast cancer cell lines
[2] = tested on: triple negative cell lines; settings: 7 of 10 types of triple negative cell lines
[3] = tested on: MDA-MB-231 triple negative breast cancer cells
Description: After implanting MDA-MB-231 triple negative breast cancer cells to the nude mouse, the tumor has been grown to the 200 mm^3 volume. […] The tumor growth has been observed for 27 days.

[4] = tested on: MDA-MB-231 triple negative breast cancer cells; remark: listed apart in the source
Excerpt: After implanting MDA-MB-231 triple negative breast cancer cells to the nude mouse, the tumor has been grown to the 200 mm^3 volume.
(§1) The tumor volume and shape in the nude mouse have been observed for 24 days.

A549 lung cancer cells = tested on: A549 lung cancer cells
Excerpt: The tumor has been grown after injecting A549 lung cancer cells to the nude mouse. […] The tumor growth has been observed for 27 days.
The tumor volume and shape in the nude mouse have been observed for 27 days.

[5] = tested on: HCT-116 colorectal cancer cells; settings: 10 mg/kg intraperitoneally every other day
Description: The tumor has been grown after injecting HCT-116 colorectal cancer cells (10×10^6 cells/0.1 ml of non-serum matrigel medium) to the nude mouse.
as §1

[6] = tested on: LDH (Lactate dehydrogenase)
Excerpt: Further, we have analyzed the secretion of LDH (Lactate dehydrogenase) enzyme to media as a representative necrosis biomarker.

cyclin B1 expression = settings: western blot; G2/M phase
Excerpt: (§2) Further, we have investigated the cell cycles of MDA-MB-231 breast cancer cell line through Flow cytometry analysis.

[7] = tested on: MDA-MB-231 breast cancer cell line; settings: flow cytometry
Excerpt: as §2

[8] = tested on: KB oral cavity cancer cells
Description: The tumor has been grown after injecting KB oral cavity cancer cells (10×10^6 cells/0.1 ml of non-serum matrigel medium) to the nude mouse. […] The tumor growth has been observed for 28 days.
The tumor volume and shape in the nude mouse have been observed for 28 days.

[9] = tested on: transplanted A549 cell tumor; settings: in vivo; cited from earlier work
[10] = tested on: TAMR-MCF-7 tamoxifen resistant breast cancer cells; assay: TAMR-MCF-7 tamoxifen resistant breast cancer xenografted model, intraperitoneal
[11] = tested on: Imatinib-resistant K562 cells; settings: in vitro and in vivo systems; cited from earlier work
[12] = tested on: MCF-7 ER positive breast cancer cells
Excerpt: as §1

[13] = 3 mg/kg intravenously once a week, day 0
[14] = 3 mg/kg intravenously once a week, day 3
[15] = 3 mg/kg intravenously once a week, day 6
[16] = 3 mg/kg intravenously once a week, day 9
[17] = 3 mg/kg intravenously once a week, day 12
[18] = 3 mg/kg intravenously once a week, day 15
[19] = 3 mg/kg intravenously once a week, day 18
[20] = 3 mg/kg intravenously once a week, day 21
[21] = 3 mg/kg intravenously once a week, day 24
[22] = 7 mg/kg intravenously once a week, day 0
[23] = 7 mg/kg intravenously once a week, day 3
[24] = 7 mg/kg intravenously once a week, day 6
[25] = 7 mg/kg intravenously once a week, day 9
[26] = 7 mg/kg intravenously once a week, day 12
[27] = 7 mg/kg intravenously once a week, day 15
[28] = 7 mg/kg intravenously once a week, day 18
[29] = 7 mg/kg intravenously once a week, day 21
[30] = 7 mg/kg intravenously once a week, day 24
[31] = 14 mg/kg intravenously once a week, day 0
[32] = 14 mg/kg intravenously once a week, day 3
[33] = 14 mg/kg intravenously once a week, day 6
[34] = 14 mg/kg intravenously once a week, day 9
[35] = 14 mg/kg intravenously once a week, day 12
[36] = 14 mg/kg intravenously once a week, day 15
[37] = 14 mg/kg intravenously once a week, day 18
[38] = 14 mg/kg intravenously once a week, day 21
[39] = 14 mg/kg intravenously once a week, day 24

In the case of `O=C1Nc2ccc([N+](=O)[O-])cc2C1=C1Nc2ccc(O)cc2C1=NO` [AGM-130, (2′Z 3′E)-5′-hydroxy-5-nitro indirubin oxime], the pIC50 [1] was less than 5.52, the pIC50 [2] was greater than 6.00 and the “tumor volume reduction compared to control group” value (shortened to “tumor volume reduction”) ([3]; 10 mg/kg intraperitoneally) was “about 40%”. For the same molecule, the “volume of tumor, Mean ± S.E.” value ([3]; 10 mg/kg intraperitoneally twice a week, day 0) was 268.0 ± 6.1, the “volume of tumor, Mean ± S.E.” value ([3]; 10 mg/kg intraperitoneally twice a week, day 3) was 369.7 ± 5.0 and the “volume of tumor, Mean ± S.E.” value ([3]; 10 mg/kg intraperitoneally twice a week, day 6) was 474.3 ± 6.6. The “volume of tumor, Mean ± S.E.” value ([3]; 10 mg/kg intraperitoneally twice a week, day 9) was 634.9 ± 36.2, the “volume of tumor, Mean ± S.E.” value ([3]; 10 mg/kg intraperitoneally twice a week, day 12) was 813.5 ± 29.0 and the “volume of tumor, Mean ± S.E.” value ([3]; 10 mg/kg intraperitoneally twice a week, day 15) was 985.6 ± 44.8. For the same molecule, the “volume of tumor, Mean ± S.E.” value ([3]; 10 mg/kg intraperitoneally twice a week, day 18) was 1095.7 ± 54.2, the “volume of tumor, Mean ± S.E.” value ([3]; 10 mg/kg intraperitoneally twice a week, day 21) was 1119.8 ± 57.7 and the “volume of tumor, Mean ± S.E.” value ([3]; 10 mg/kg intraperitoneally twice a week, day 24) was 1242.1 ± 76.0. For the same molecule, the “volume of tumor, Mean ± S.E.” value ([3]; 10 mg/kg intraperitoneally twice a week, day 27) was 1484.9 ± 86.8, the “tumor volume reduction” value ([3]; 20 mg/kg intraperitoneally) was “about 64%” and the “volume of tumor, Mean ± S.E.” value ([3]; 20 mg/kg intraperitoneally twice a week, day 0) was 248.0 ± 11.0. The “volume of tumor, Mean ± S.E.” value ([3]; 20 mg/kg intraperitoneally twice a week, day 3) was 295.4 ± 22.0, the “volume of tumor, Mean ± S.E.” value ([3]; 20 mg/kg intraperitoneally twice a week, day 6) was 364.9 ± 23.5 and the “volume of tumor, Mean ± S.E.” value ([3]; 20 mg/kg intraperitoneally twice a week, day 9) was 457.4 ± 47.3. For the same molecule, the “volume of tumor, Mean ± S.E.” value ([3]; 20 mg/kg intraperitoneally twice a week, day 12) was 559.5 ± 56.2, the “volume of tumor, Mean ± S.E.” value ([3]; 20 mg/kg intraperitoneally twice a week, day 15) was 623.4 ± 51.5 and the “volume of tumor, Mean ± S.E.” value ([3]; 20 mg/kg intraperitoneally twice a week, day 18) was 668.5 ± 56.8. The “volume of tumor, Mean ± S.E.” value ([3]; 20 mg/kg intraperitoneally twice a week, day 21) was 767.2 ± 106.7, the “volume of tumor, Mean ± S.E.” value ([3]; 20 mg/kg intraperitoneally twice a week, day 24) was 833.1 ± 139.7 and the “volume of tumor, Mean ± S.E.” value ([3]; 20 mg/kg intraperitoneally twice a week, day 27) was 894.2 ± 151.6. The “tumor volume reduction” value ([3]; 40 mg/kg intraperitoneally) was “about 70%”, the “volume of tumor, Mean ± S.E.” value ([3]; 40 mg/kg intraperitoneally twice a week, day 0) was 253.1 ± 8.5 and the “volume of tumor, Mean ± S.E.” value ([3]; 40 mg/kg intraperitoneally twice a week, day 3) was 313.3 ± 9.7. The “volume of tumor, Mean ± S.E.” value ([3]; 40 mg/kg intraperitoneally twice a week, day 6) was 327.5 ± 19.1, the “volume of tumor, Mean ± S.E.” value ([3]; 40 mg/kg intraperitoneally twice a week, day 9) was 372.4 ± 8.3 and the “volume of tumor, Mean ± S.E.” value ([3]; 40 mg/kg intraperitoneally twice a week, day 12) was 444.8 ± 7.3. For the same molecule, the “volume of tumor, Mean ± S.E.” value ([3]; 40 mg/kg intraperitoneally twice a week, day 15) was 481.9 ± 39.1, the “volume of tumor, Mean ± S.E.” value ([3]; 40 mg/kg intraperitoneally twice a week, day 18) was 532.7 ± 27.6 and the “volume of tumor, Mean ± S.E.” value ([3]; 40 mg/kg intraperitoneally twice a week, day 21) was 620.1 ± 45.2. The “volume of tumor, Mean ± S.E.” value ([3]; 40 mg/kg intraperitoneally twice a week, day 24) was 686.2 ± 85.6, the “volume of tumor, Mean ± S.E.” value ([3]; 40 mg/kg intraperitoneally twice a week, day 27) was 730.8 ± 73.9 and the “tumor volume reduction” value ([3]; control group paclitaxel (5 mg/kg)) was “about 14%”. The “tumor volume reduction” value ([4]; 3 mg/kg intravenously) was “about 31%”, the volume of tumor [4, 13] was 341.5 ± 14.4 and the volume of tumor [4, 14] was 474.6 ± 26.4. The volume of tumor [4, 15] was 602.5 ± 44.1, the volume of tumor [4, 16] was 693.1 ± 61.0 and the volume of tumor [4, 17] was 838.0 ± 79.9. For the same molecule, the volume of tumor [4, 18] was 996.9 ± 79.9, the volume of tumor [4, 19] was 1217.5 ± 81.8 and the volume of tumor [4, 20] was 1398.0 ± 78.1. For the same molecule, the volume of tumor [4, 21] was 1871.4 ± 175.5, the “tumor volume reduction” value ([4]; 7 mg/kg intravenously) was “about 47%” and the volume of tumor [4, 22] was 355.4 ± 10.7. It also gave a volume of tumor [4, 23] of 451.9 ± 10.2, a volume of tumor [4, 24] of 543.4 ± 10.9 and a volume of tumor [4, 25] of 615.5 ± 19.0. For the same molecule, the volume of tumor [4, 26] was 651.0 ± 47.1, the volume of tumor [4, 27] was 677.9 ± 46.7 and the volume of tumor [4, 28] was 899.6 ± 59.6. For the same molecule, the volume of tumor [4, 29] was 1108.9 ± 88.1, the volume of tumor [4, 30] was 1436.1 ± 84.8 and the “tumor volume reduction” value ([4]; 14 mg/kg intravenously) was “about 61%”. For the same molecule, the volume of tumor [4, 31] was 342.1 ± 20.7, the volume of tumor [4, 32] was 408.5 ± 10.3 and the volume of tumor [4, 33] was 470.8 ± 20.4. It also gave a volume of tumor [4, 34] of 525.4 ± 35.6, a volume of tumor [4, 35] of 535.3 ± 39.0 and a volume of tumor [4, 36] of 581.5 ± 44.8. It also gave a volume of tumor [4, 37] of 696.1 ± 54.6, a volume of tumor [4, 38] of 831.0 ± 75.1 and a volume of tumor [4, 39] of 1064.3 ± 39.8. For the same molecule, the weight of tumor ([4]; intravenously, FIG. 6) was “dose-dependently reduced”, the volume of tumor (A549 lung cancer cells; 10/20/40 mg/kg intraperitoneally every other day, FIG. 14) was “cannot be reduced significantly” and the weight of tumor (A549 lung cancer cells; 10/20/40 mg/kg intraperitoneally, FIG. 15a) was “cannot be reduced significantly”. The “apoptosis in tumor (TUNEL assay)” value (A549 lung cancer cells; paraffin embedded tumor region, compared to vehicle, FIG. 15b) was “induces the apoptosis”, the volume of tumor ([5]; FIG. 12) was “cannot be reduced significantly” and the volume of tumor ([5]; FIG. 13) was “cannot be reduced significantly”. The “apoptosis and necrosis (LDH secretion)” value [6] was “apoptosis and necrosis have been induced at the same time”, the “cyclin B1 expression” value (cyclin B1 expression) was “remarkably reduced” and the cell cycle phases [7] was “decreased G1 phase and increased G2/M phase”. The volume of tumor ([8]; 5/10/20 mg/kg intraperitoneally every other day, FIG. 11) was “cannot be reduced significantly”, the “reduction of volume of tumor compared to paclitaxel” value ([8]; paclitaxel 10 mg/kg positive control) was “cannot result in significant reduction” and the tumor growth [9] was “dose-dependently suppresses”. For the same molecule, the “reduction of tumor volume” value ([10]; 10 mg/kg and 40 mg/kg, FIG. 8) was “significantly observed”, the “tumor volume reduction” value ([10]; 10 mg/kg intraperitoneally twice a week) was “about 54%” and the “tumor volume reduction” value ([10]; 40 mg/kg intraperitoneally twice a week) was “about 45%”. For the same molecule, the “weight of mouse compared to control group” value ([10]; 10/40 mg/kg) was “changed significantly”, the viability of cells [11] was “efficiently decreases the viability” and the “tumor volume reduction” value ([12]; 3 mg/kg intravenously) was “about 49%”. It also gave a volume of tumor [12, 13] of 131.9 ± 8.6, a volume of tumor [12, 14] of 167.5 ± 7.1 and a volume of tumor [12, 15] of 182.3 ± 4.2. It also gave a volume of tumor [12, 16] of 253.3 ± 7.9, a volume of tumor [12, 17] of 311.9 ± 2.3 and a volume of tumor [12, 18] of 337.5 ± 11.0. For the same molecule, the volume of tumor [12, 19] was 359.8 ± 15.6, the volume of tumor [12, 20] was 408.2 ± 19.0 and the volume of tumor [12, 21] was 434.5 ± 18.3. For the same molecule, the “tumor volume reduction” value ([12]; 7 mg/kg intravenously) was “about 64%”, the volume of tumor [12, 22] was 129.1 ± 3.8 and the volume of tumor [12, 23] was 166.9 ± 7.4. For the same molecule, the volume of tumor [12, 24] was 190.0 ± 6.3, the volume of tumor [12, 25] was 205.6 ± 11.4 and the volume of tumor [12, 26] was 235.6 ± 7.1. For the same molecule, the volume of tumor [12, 27] was 267.3 ± 9.4, the volume of tumor [12, 28] was 288.1 ± 6.2 and the volume of tumor [12, 29] was 300.2 ± 15.4. The volume of tumor [12, 30] was 310.1 ± 18.2, the “tumor volume reduction” value ([12]; 14 mg/kg intravenously) was “about 69%” and the volume of tumor [12, 31] was 127.8 ± 2.4. It also gave a volume of tumor [12, 32] of 156.8 ± 4.7, a volume of tumor [12, 33] of 180.6 ± 5.0 and a volume of tumor [12, 34] of 202.9 ± 3.8. The volume of tumor [12, 35] was 210.6 ± 5.1, the volume of tumor [12, 36] was 234.7 ± 17.8 and the volume of tumor [12, 37] was 249.4 ± 15.3. The volume of tumor [12, 38] was 264.8 ± 12.9 and the volume of tumor [12, 39] was 268.7 ± 8.7.
